Measured values reported in PMC10178848, “Modulating fast skeletal muscle contraction protects skeletal muscle in animal models of Duchenne muscular dystrophy” (The Journal of Clinical Investigation, 2023).

Test system: mdx mouse EDL muscle
Assay: Phosphoprotein array analysis (Cell Signaling Phospho Antibody Array)
Experimental: mdx mouse EDL muscle was prepared for ex vivo analysis as described (n = 5). Muscles were incubated for 1 hour with DMSO or EDG-5506 (5 μM) and then flash frozen in liquid nitrogen. Tissue preparation and analysis were performed as recommended by the manufacturer (Cell Signaling Phospho Antibody Array, Full Moon Biosystems).

## O=c1ccc(-c2cnc(OCC(F)(F)F)nc2)nn1Cc1cncc(F)c1 [EDG-5506]
  Data Normalized to Median Signal: BAX (Phospho-Thr167): 0.77
5 μM, 1 hour
  Fold Change T/C: 4E-BP1 (Ab-45): 0.88
  Fold Change T/C: 4E-BP1 (Phospho-Thr45): 0.74
  Fold Change T/C: 14-3-3 theta/tau (Phospho-Ser232): 1.01
  Fold Change T/C: 14-3-3 zeta/delta (Ab-232): 1.03
  Fold Change T/C: ACC1 (Ab-80): 0.96
  Fold Change T/C: ACC1 (Phospho-Ser80): 0.92
  Fold Change T/C: AKT: 0.96
  Fold Change T/C: AKT1 (Ab-308): 1.11
  Fold Change T/C: AKT1S1 (Ab-246): 1.04
  Fold Change T/C: AMPKbeta1 (Ab-182): 0.89
  Fold Change T/C: AMPKbeta1 (Phospho-Ser182): 0.80
  Fold Change T/C: ASK1 (Ab-966): 0.99
  Fold Change T/C: ATF2 (Ab-62/44): 2.53
  Fold Change T/C: Actin Pan(a/b/g) (Ab-55/53): 0.97
  Fold Change T/C: B-RAF (Ab-598): 1.09
  Fold Change T/C: B-RAF (Phospho-Ser446): 1.05
  Fold Change T/C: BAX (Phospho-Thr167): 0.78
  Fold Change T/C: BCL-XL (Ab-47): 1.77
  Fold Change T/C: BCL-XL (Phospho-Ser62): 1.02
  Fold Change T/C: BID (Ab-78): 1.23
  Fold Change T/C: BLNK (Ab-96): 0.97
  Fold Change T/C: BLNK (Phospho-Tyr96): 0.51
  Fold Change T/C: BRCA1 (Ab-1524): 1.39
  Fold Change T/C: Bax: 0.89
  Fold Change T/C: Beclin-1: 1.49
  Fold Change T/C: Beta actin: 0.82
  Fold Change T/C: CBL (Phospho-Tyr700): 0.88
  Fold Change T/C: CDC25C (Ab-216): 1.97
  Fold Change T/C: CDK1/CDC2 (Phospho-Tyr15): 0.83
  Fold Change T/C: CREB (Ab-133): 0.71
  Fold Change T/C: CREB (Phospho-Ser133): 0.74
  Fold Change T/C: CaMK2-beta/gamma/delta (Ab-287): 1.42
  Fold Change T/C: CaMK2-beta/gamma/delta (Phospho-Thr287): 0.92
  Fold Change T/C: CaMK2A (Phospho-Thr286): 0.86
  Fold Change T/C: Calmodulin (Ab-79/81): 1.02
  Fold Change T/C: Caspase 8 (Phospho-Ser347): 1.08
  Fold Change T/C: Caspase 9 (Ab-196): 2.31
  Fold Change T/C: Caspase 9 (Phospho-Ser196): 0.94
  Fold Change T/C: Catalase (Ab-385): 1.34
  Fold Change T/C: Catenin beta (Ab-37): 1.21
  Fold Change T/C: Catenin beta (Phospho-Thr41/Ser45): 0.83
  Fold Change T/C: Chk2 (Ab-68): 1.17
  Fold Change T/C: Chk2 (Phospho-Thr68): 0.51
  Fold Change T/C: CrkII (Ab-221): 1.59
  Fold Change T/C: Cyclin D1 (Ab-286): 1.10
  Fold Change T/C: Cyclin D1 (Phospho-Thr286): 1.18
  Fold Change T/C: Cyclin E1 (Ab-77): 1.24
  Fold Change T/C: Cyclin E1 (Phospho-Thr77): 1.02
  Fold Change T/C: DARPP-32 (Ab-34): 1.01
  Fold Change T/C: DARPP-32 (Phospho-Thr34): 0.91
  Fold Change T/C: EEF2 (Ab-56): 0.84
  Fold Change T/C: EEF2 (Phospho-Thr56): 1.12
  Fold Change T/C: EGFR (Ab-1172): 0.86
  Fold Change T/C: Elk1 (Ab-389): 1.22
  Fold Change T/C: FADD (Phospho-Ser194): 1.53
  Fold Change T/C: FAK (Ab-910): 1.76
  Fold Change T/C: FAK (Phospho-Ser910): 1.09
  Fold Change T/C: FGFR1 (Phospho-Tyr654): 1.35
  Fold Change T/C: FKHRL1/FOXO3A (Ab-253): 1.74
  Fold Change T/C: FOXO1/3/4-pan (Ab-24/32): 1.40
  Fold Change T/C: GAPDH: 0.75
  Fold Change T/C: GRK2 (Ab-29): 1.92
  Fold Change T/C: GRK2 (Phospho-Ser29): 1.26
  Fold Change T/C: GSK3 alpha/beta (Phospho-Tyr216/279): 0.97
  Fold Change T/C: GSK3 beta: 1.12
  Fold Change T/C: Gab1 (Ab-627): 1.06
  Fold Change T/C: Gab2 (Phospho-Tyr643): 1.59
  Fold Change T/C: HDAC1 (Ab-421): 0.79
  Fold Change T/C: HDAC1 (Phospho-Ser421): 1.25
  Fold Change T/C: HDAC2 (Ab-394): 1.03
  Fold Change T/C: HDAC2 (Phospho-Ser394): 0.90
  Fold Change T/C: HER2 (Ab-1221/1222): 1.19
  Fold Change T/C: HSP27 (Ab-82): 0.82
  Fold Change T/C: HSP90B (Phospho-Ser226): 1.00
  Fold Change T/C: IKK alpha/beta (Ab-180/181): 0.91
  Fold Change T/C: IKK-beta (Ab-199): 1.62
  Fold Change T/C: IKK-beta (Phospho-Tyr188): 1.01
  Fold Change T/C: IKK-beta (Phospho-Tyr199): 0.84
  Fold Change T/C: IKK-gamma (Ab-31): 0.96
  Fold Change T/C: IKK-gamma (Phospho-Ser31): 0.98
  Fold Change T/C: IL-4R/CD124 (Ab-497): 0.93
  Fold Change T/C: IL-4R/CD124 (Phospho-Tyr497): 0.93
  Fold Change T/C: IL-10R-alpha (Ab-496): 1.30
  Fold Change T/C: IL-10R-alpha (Phospho-Tyr496): 0.85
  Fold Change T/C: IRS-1 (Ab-312): 1.03
  Fold Change T/C: IkB-alpha (Phospho-Ser32/36): 1.11
  Fold Change T/C: IkB-epsilon (Ab-22): 1.30
  Fold Change T/C: Integrin beta-3 (Ab-773): 1.08
  Fold Change T/C: Integrin beta-3 (Phospho-Tyr773): 0.93
  Fold Change T/C: Interferon-alpha/beta receptor alpha chain (Ab-466): 0.90
  Fold Change T/C: JAK2 (Ab-1007): 1.36
  Fold Change T/C: JunB (Phospho-Ser259): 0.79
  Fold Change T/C: LCK (Ab-393): 1.67
  Fold Change T/C: LKB1 (Ab-334): 0.94
  Fold Change T/C: LYN (Ab-507): 0.58
  Fold Change T/C: LYN (Phospho-Tyr507): 1.06
  Fold Change T/C: Lamin A/C (Ab-392): 1.84
  Fold Change T/C: Lamin A/C (Phospho-Ser392): 0.80
  Fold Change T/C: MDM2 (Ab-166): 1.49
  Fold Change T/C: MEK1 (Ab-291): 0.77
  Fold Change T/C: MEK1 (Phospho-Ser217): 0.62
  Fold Change T/C: MITF (Ab-73): 1.38
  Fold Change T/C: MKK4/SEK1 (Ab-80): 1.10
  Fold Change T/C: MSK1 (Ab-360): 0.69
  Fold Change T/C: Myc (Ab-58): 1.09
  Fold Change T/C: NFkB-p65 (Ab-529): 1.14
  Fold Change T/C: NFkB-p65 (Phospho-Ser311): 1.00
  Fold Change T/C: NFkB-p65 (Phospho-Ser529): 0.82
  Fold Change T/C: NFkB-p100/p52 (Ab-865): 0.76
  Fold Change T/C: NFkB-p100/p52 (Phospho-Ser865): 0.88
  Fold Change T/C: NFkB-p105/p50 (Ab-927): 0.85
  Fold Change T/C: P38 MAPK (Ab-182): 1.70
  Fold Change T/C: P38 MAPK (Phospho-Thr180/Tyr182): 0.35
  Fold Change T/C: P70S6K (Ab-229): 1.33
  Fold Change T/C: P70S6K (Phospho-Ser424): 1.00
  Fold Change T/C: P90RSK (Ab-359/363): 1.06
  Fold Change T/C: P90RSK (Phospho-Thr359/Ser363): 0.95
  Fold Change T/C: PDK1 (Ab-241): 1.24
  Fold Change T/C: PDK1 (Phospho-Ser241): 1.14
  Fold Change T/C: PLCG1 (Phospho-Tyr783): 2.25
  Fold Change T/C: PLK1 (Ab-210): 1.49
  Fold Change T/C: PLK1 (Phospho-Thr210): 0.60
  Fold Change T/C: PP1 alpha (Ab-320): 1.15
  Fold Change T/C: PP2A-alpha (Ab-307): 1.23
  Fold Change T/C: PP2A-alpha (Phospho-Tyr307): 0.93
